Measured values published in patent US10124012B2, “Method for treatment of hyperglycemia and hyperlipidemia” (priority 2016, dated 2018).

Legend:
PPARγ = assay: Western blotting of PPARγ in adipose tissue; format: in vivo, C57BL/6J mice; details: HFD-fed mice, AnK 10, 20, 40, Feno 250, Metf 300 mg/kg/day, vs HF group
Text: The 4-week old male C57BL/6J mice (total amount n=63) were obtained from the National Laboratory Animal Center (Taipei, Taiwan). After acclimatization for one week, all of the mice were randomly assigned into a control (CON) group and a high-fat diet (HFD) group. […] After HFD feeding for 8 weeks, the HFD group was randomly subdivided into six groups (n=9 per group) receiving different treatments and fed on HFD. […] The HF+AnK1, HF+AnK2, and HF+AnK3 groups are collectively termed AnK-treated HFD groups in the following examples. The CON mice were administered vehicle. All treatments were administered via oral gavage once daily. After administration for 4 weeks, all mice were fasted 12 hours, and blood was collected from the retro-orbital sinus under ether anesthesia. At the end of the experiment, the mice were sacrificed via carbon dioxide inhalation. […]
About 0.1 g of liver tissue, skeletal muscle, or adipose tissue was used for the homogenate samples. […] The protein concentration in supernatant was determined with a BCA protein assay kit (Thermo Scientific, Rockford, Ill., USA). […] Immunoreactive bands were detected with ECL reagent kit (GE Healthcare BioSciences, Buckinghamshire, UK). The intensity of Western blot signals was analyzed using AlphaEase FC software (Alpha Innotech Corporation, Randburg, South Africa). […]

[1] = tested on: phospho-Akt (Ser^473)/total-Akt; assay: Akt phosphorylation in C2C12 cells (Western blotting); format: cell-based; details: AnK 1, 5, 10 and 25 μg/mL 30 min, insulin 100 nM 25 min, vs CON group
Description: For the in vitro assay, C2C12 skeletal myoblasts (ATCC CRL-1772) were cultured at 37° C. in Dulbecco's modified Eagle's medium (DMEM; Gibco BRL) supplemented with 10% fetal bovine serum (FBS; Hyclone) and 100 U/ml penicillin and 100 μg/ml streptomycin (Gibco BRL), and split 1:4 using 0.05% trypsin at 80% confluency. Myoblasts were diluted and placed in a 9 cm dish. Cells were cultured to achieve 80-90% confluency and refreshed with […] (2% FBS/DMEM) every 24 hours for 5-7 days. The term “confluency” refers to the proportion of the surface of a culture dish that is covered by adherent cells growing in the dish. 100% confluency refers to complete coverage of the surface by the cells.
Differentiated C2C12 cells were serum-starved in DMEM/BSA at 37° C. for 2 hours prior to incubation with AnK (at 1, 5, 10, and 25 μg/mL) or vehicle (0.2% dimethyl sulfoxide (DMSO) in saline) for 30 min or with 100 nM insulin for 25 min.
The abovementioned C2C12 cells were then washed three times with phosphate buffered saline (PBS) and divided into two groups. […]
Protein concentrations were determined via BCA assay (Pierce). […]
SDS polyacrylamide gel electrophoresis (SDS-PAGE) and Western blotting. Proteins were detected with antibodies specific for GLUT4, Akt, phospho-Akt (Ser^473), AMPK, and phospho-AMPK (Thr^172).

C=C(CC[C@@H](C)[C@H]1CC[C@H]2C3=C(C(=O)C[C@]12C)[C@@]1(C)CC[C@@H](O)[C@](C)(O)[C@@H]1C[C@@H]3O)C(C)C(=O)O (stereo partly drawn) [AnK, 3α,4β,7β-trihydroxy-4α-methylergosta-8,24(28)-dien-11-on-25S-26-oic acid]
expression levels of PPARγ (protein) (PPARγ): significantly reduced | expression ratio of phospho-Akt (p-Akt) to total-Akt (t-Akt) [1]: higher
